The structures appear in SMILES notation.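 Cultured in 96-well plates, cells were exposed to test compound for 48 hours across five concentrations. Here, GI50 denotes the concentration required for 50% inhibition of growth.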 Calls of active or inactive are those of the source. No stated cut-off is given here; in the data, active = GI50 up to about 1.1 µM and inactive = higher. Bounds are passed on as bounds.

The source of these data is ChEMBL document CHEMBL1201862, “PubChem BioAssay data set” (2004).

Holding throughout (test): inhibition of tumour cell growth, NCI panel, 48 h
For assay [1], the system named is DU-145.
In assay [2] the test system is HL-60.
Assay [3] has as its system UO-31.
In assay [4] the test system is 786-0.
Assay [5] has as its system M14.
Assay [6] relates to HOP-62.
Assay [7] has as its system SR.
Assay [8] concerns K562.
Assay [9] has as its system SW-620.
The subject of assay [10] is COLO 205.
The subject of assay [11] is HCC 2998.
Assay [12] relates to MCF7.
In assay [13] the test system is U-251.
The test system of assay [14] is SK-MEL-28.
For assay [15], the system named is CCRF-CEM.
The subject of assay [16] is RXF 393.
Assay [17] has as its system MOLT-4.
The subject of assay [18] is UACC-62.
For assay [19], the system named is HOP-92.
The test system of assay [20] is SK-MEL-2.

For `O=C1C=CC(=O)c2c1ccc1c3ccccc3n(Cc3ccc([N+](=O)[O-])cc3)c21`, the GI50 in assay [1] was > 100 µM (inactive); in [2], 14 µM (inactive); in [3] it was > 100 µM (inactive); in assay [4], > 100 µM (inactive); in [5], > 100 µM (inactive); in assay [6] it was > 100 µM (inactive). Besides, the GI50 is 13.8 µM (inactive) in [7]; 19.7 µM (inactive) in assay [8]; 38.7 µM (inactive) in [9]; > 100 µM (inactive) in [10]; > 100 µM (inactive) in assay [11]; > 100 µM (inactive) in assay [12]. In addition, the GI50 in assay [13] is > 100 µM (inactive); in assay [14] it was > 100 µM (inactive); in [15] it was 10.9 µM (inactive); in assay [16], > 100 µM (inactive); in [17], 20.3 µM (inactive); in [18], > 100 µM (inactive).
Turning to `COC(=O)/C=C\C(C#N)(C#N)/N=C/c1cccc(OC)c1`, the GI50 in [1] is 14.5 µM (inactive); in assay [2] it was > 100 µM (inactive); in [3] it was 2.74 µM (inactive); in [4], 3.51 µM (inactive); in [5] it was 4.12 µM (inactive); in assay [6], > 42.7 µM (inactive). In addition, the GI50 in [8] is 11.1 µM (inactive); in assay [9], 2.13 µM (inactive); in assay [10] it was 2.15 µM (inactive); in assay [11] it was 16.3 µM (inactive); in assay [12], 4.94 µM (inactive); in assay [19], 2.3 µM (inactive). For the same compound, the GI50 was 17.1 µM (inactive) in assay [20]; 15.9 µM (inactive) in [13]; 14.3 µM (inactive) in assay [14]; 1.72 µM (inactive) in [15]; 3.18 µM (inactive) in assay [16]; 1.9 µM (inactive) in assay [17]. Also, the GI50 in [18] was 15.2 µM (inactive).
On to `CCOC(=O)C1C(c2ccccc2)C2(C#N)C(=N)OC1(C)C2(C#N)C#N` (configuration not stated), for which the GI50 in assay [1] was 30.6 µM (inactive); in assay [2], 20.7 µM (inactive); in [3], 16.2 µM (inactive); in assay [4], 13.6 µM (inactive); in assay [5], 40.6 µM (inactive); in [8], 19.8 µM (inactive). Also, the GI50 in assay [9] is 44.8 µM (inactive); in assay [10], 16.4 µM (inactive); in assay [11] it was 13.8 µM (inactive); in assay [12], 46.8 µM (inactive); in assay [19], 20 µM (inactive); in assay [20], 20.7 µM (inactive). The GI50 in assay [13] is 28.7 µM (inactive); in [15], 23.5 µM (inactive); in [16] it was 15.8 µM (inactive); in assay [17], 21.1 µM (inactive); in assay [18] it was 27 µM (inactive).
Regarding `CN(C)C1(N(C)C)Oc2c(c(=O)n(C)c(=O)n2C)C(c2ccc(Br)cc2)C1(F)F` (configuration not stated), the GI50 in assay [1], in assay [3], in assay [4], in [5], in assay [6] and in assay [9] was > 100 µM (inactive) in each case. In addition, the GI50 in assay [10] was > 100 µM (inactive); in assay [11], > 100 µM (inactive); in assay [12] it was > 100 µM (inactive); in [19], 82.4 µM (inactive); in assay [20], > 100 µM (inactive); in assay [13], > 100 µM (inactive). Also, the GI50 in [14], in assay [15], in assay [16], in assay [17] and in [18] was > 100 µM (inactive) throughout.
On to `Cn1nc2ccc3nccc(N4CCN(CCO)CC4)c3c2n1`, for which the GI50 was > 100 µM (inactive) in assay [1]; > 100 µM (inactive) in assay [3]; > 100 µM (inactive) in assay [4]; > 100 µM (inactive) in assay [5]; > 100 µM (inactive) in assay [6]; 58.6 µM (inactive) in [8]. The GI50 is 59.4 µM (inactive) in assay [9]; > 100 µM (inactive) in [10]; > 100 µM (inactive) in [11]; > 100 µM (inactive) in assay [12]; > 100 µM (inactive) in [20]; > 100 µM (inactive) in assay [13]. In addition, the GI50 in assay [14] is > 100 µM (inactive); in assay [15] it was 21.3 µM (inactive); in [16], > 100 µM (inactive); in assay [17] it was 31.7 µM (inactive); in [18], > 100 µM (inactive).
Regarding `C=C1CC(C)(c2cccc(Nc3nc4ccccc4c4occc34)c2)OC1=O` (configuration not stated), the GI50 in [1] is 5.6 µM (inactive); in [2] it was 2.27 µM (inactive); in [3] it was 1.89 µM (inactive); in assay [4], 1.67 µM (inactive); in assay [5], 2.84 µM (inactive); in [6], 12.2 µM (inactive). The GI50 in [10] is 4.38 µM (inactive); in assay [11] it was 2.43 µM (inactive); in [12] it was 3.71 µM (inactive); in [19], 1.44 µM (inactive); in assay [13] it was 10 µM (inactive); in assay [14] it was 13.9 µM (inactive). Also, the GI50 was 2.07 µM (inactive) in assay [15], 2.36 µM (inactive) in assay [16], 10.6 µM (inactive) in [17] and 0.65 µM (active) in [18].
`O=[N+]([O-])c1ccc2nc3ccccc3cc2c1`: the GI50 in assay [1] was 2.82 µM (inactive); in assay [3], 3.4 µM (inactive); in assay [4], 2.38 µM (inactive); in assay [5], 3.33 µM (inactive); in assay [6] it was 2.26 µM (inactive); in [8], 0.0782 µM (active). In addition, the GI50 is 1.85 µM (inactive) in [9]; 3.56 µM (inactive) in assay [10]; 1.63 µM (inactive) in assay [11]; 2.39 µM (inactive) in assay [12]; 3.28 µM (inactive) in [19]; 4.73 µM (inactive) in assay [20]. Besides, the GI50 is 2.69 µM (inactive) in assay [13]; 2.57 µM (inactive) in assay [14]; 13.8 µM (inactive) in [16]; < 0.01 µM (active) in [17]; 1.19 µM (inactive) in assay [18].
In the case of `CC(NC(=O)OCc1ccccc1)NC(=O)C(CC(=O)OC(C)(C)C)NC(=O)OC(C)(C)C` (configuration not stated), the GI50 in [1], in [3], in assay [4], in [5], in assay [6] and in assay [8] was > 100 µM (inactive) each time. Also, the GI50 in assay [9], in assay [10], in assay [12], in assay [19], in assay [20] and in assay [13] was > 100 µM (inactive) throughout. The GI50 in assay [14], in [15], in [16], in assay [17] and in [18] was > 100 µM (inactive) in each case.
As for `O=[N+]([O-])c1ccc(-c2nnc(C34CC5CC(CC(C5)C3)C4)o2)cc1`, the GI50 in assay [1], in [2], in assay [3], in [4], in assay [5] and in assay [6] was > 100 µM (inactive) each time. For the same compound, the GI50 in assay [7], in assay [8], in assay [9], in [10], in assay [11] and in assay [19] was > 100 µM (inactive) throughout. Moreover, the GI50 in [20], in assay [13], in [14], in assay [15], in assay [16] and in assay [17] was > 100 µM (inactive) each time. The GI50 in assay [18] is > 100 µM (inactive).
For `CC1=C2C(=O)[C@H]3[C@@H](CC=C4C[C@@H](O)CC[C@@]43C)[C@@H]2CC[C@]12O[C@@H]1C[C@H](C)CN[C@H]1[C@H]2C` [JERVINE], the GI50 in assay [1] was > 100 µM (inactive); in assay [2] it was > 44.2 µM (inactive); in assay [3], > 40.1 µM (inactive); in assay [4], > 41.9 µM (inactive); in assay [5], > 41.7 µM (inactive); in [6], > 39.5 µM (inactive). Also, the GI50 in [8] was > 61.9 µM (inactive); in assay [9], > 49.4 µM (inactive); in [10], > 75.5 µM (inactive); in assay [11], > 54 µM (inactive); in assay [12], > 100 µM (inactive); in [19] it was 11.9 µM (inactive). For the same compound, the GI50 in [20] is > 50.7 µM (inactive); in assay [13], > 41.4 µM (inactive); in [14], > 49.3 µM (inactive); in [15], > 63.4 µM (inactive); in [16], > 38.5 µM (inactive); in assay [17] it was > 82.4 µM (inactive). In assay [18], the GI50 is > 53.7 µM (inactive).
As to `CC(C)(Sc1cc(C(C)(C)C)c(O)c(C(C)(C)C)c1)Sc1cc(C(C)(C)C)c(O)c(C(C)(C)C)c1` [PROBUCOL], the GI50 in assay [1] was > 100 µM (inactive); in assay [2], 1.49 µM (inactive); in [3], > 100 µM (inactive); in assay [4] it was > 100 µM (inactive); in assay [5], > 100 µM (inactive); in assay [6] it was > 100 µM (inactive). For the same compound, the GI50 in assay [8] is 1.81 µM (inactive); in assay [9], > 100 µM (inactive); in [10], > 100 µM (inactive); in [12], > 100 µM (inactive); in assay [20], > 100 µM (inactive); in assay [13], > 100 µM (inactive). The GI50 is > 100 µM (inactive) in assay [14], > 100 µM (inactive) in [15], 79.6 µM (inactive) in assay [16] and > 100 µM (inactive) in assay [18].
